For data set [1] the following is noted: rat, in vivo. The method, then:
FIG. 4. Quantitative profile of radioactivity in various tissues following administration of 100 pmoles ^3H-hexapeptide, 60 min post-dose or plus 100 nmoles unlabelled peptide to non specific binding.
Quantification was assessed using a spectrometer and calculated as cpm/mg protein from whole tissue extracts.
FIG. 5. Quantitative profile of radioactivity in various tissues following administration of 5 pmoles ^125I-undecapeptide (VRGPRRQHNPR, SEQ ID NO: 7), 10 min post-dose or plus 100 nmoles unlabeled peptide to non specific binding.
Quantification was assessed using a gama-spectrometer and calculated as cpm/g tissue.

The nature of data set [2]: Chromatographic characterization of radioactive peptide uptake by tissues. The data set is classed as in vivo, rat. As to conditions: 180 min after injection. The procedure:
The chromatographic characteristics of the labeled compound associated, in vivo, to target organs were assessed by HPLC.
At selected time points (2 and 180 min.) after administration of tritiated pentapeptide, the anesthetized rats were sacrificed (cardiac blood puncture) and tissues quickly removed on ice. The tissues were immediately homogenized at 4° C. in 5-10 volumes of 0.1 M chlorhydric acid using a potter homogenizer (demineralization of bone tissue was realized after 24-48 h at 4° C. in guanidium hydrochloride and EDTA pretreatment, 4 M and 0.25 M final concentration, respectively). Homogenates were centrifuged for 30 min. at 4° C. and 15,000 g. To determine total radioactivity, aliquots of the supernatant solution were added to 50 volumes of Biofluor (NEN, Dupont de Nemours, France) and counted in a liquid scintillation counter.
To determine the radioactivity in the pentapeptide fraction, aliquots of the tissue extracts were submitted to a methanol-extraction procedure (Rougeot et al., 1994) after neutralization with Tris/HCl pH 8.5 containing 16 mM DTPA (DiethyleneTriaminePenta-Acetic acid, Sigma, France). […] Fractions were collected every 60 sec. and analyzed for radioactivity using a liquid scintillation counter.

Data set [3] in a line: Pentapeptide metabolic and pharmacokinetic studies after i.v. bolus of tritiated pentapeptide. The data set is classed as in vivo, rat. The method, then:
The in vivo time course of distribution, metabolism and elimination of the pentapeptide was investigated in anesthetized adult male rats using physiological concentrations of circulating tritiated pentapeptide.
Anesthetized male rats were given a bolus intravenous injection of 170 pmoles or 110 ng tritiated pentapeptide diluted in 100 μl PBS Dulbecco's. Blood was collected in tubes containing a mixture of peptidase inhibitors described above, via a silastic catheter implanted into the external jugular vein. Blood was withdrawn just before and 2, 4, 6, 8, 10, 20, 30, 45, 60, 90 and 120 min. after peptide administration. Two milliliters of blood per rat were taken in all and the entire urinary bladder content was collected at a last selected point.
The biological samples were submitted to centrifugation and Parapak Q extraction conditions, as described above. Chromatrography using HPLC procedure described above and in the reference (Rougeot et al., 1994) was then applied to each extracted sample. The ODS AQ RP-C18 was used for identification of amino-terminal metabolites and Pep RPC HR C18 (Pharmacia, France) for identification of carboxyl-terminal metabolites. The radioactivity content of samples before and after chromatographic separations was determined using a beta counter (Kontron, MR300).

Data set [4] relates to pentapeptide binding sites. The experiment in a line: In vivo displacement of ^3H-pentapeptide uptake by coinjection of 100-fold excess unlabeled peptide. On the set-up: species or system rat. Particulars: for specific labeling percentage: 60 min, 100-fold excess unlabeled peptide. The text has this: Biological receptor sites have two essential characteristics that allow specific binding to be identified, in vivo; they have a high affinity for the ligand and the binding is saturable (Whitcomb et al., 1993). Therefore, displacement experiments, using parallel systemic administration of an excess of the corresponding unlabeled peptide has been performed. Furthermore, the specific cellular localization of labeled pentapeptide to target tissues has been identified by section microscopic autoradiography.
(§1) The cellular-site localization for physiological concentrations of labeled pentapeptide was investigated by paraffin- or resin-section microscopic autoradiography procedure. Sixty minutes after ^3H-pentapeptide (555 KBq, 160 ng or 250 pmoles) i.v. administration, the anesthetized male rats were perfused via the jugular veins with ice-cold Krebs Ringer Bicarbonate Glucosed buffer and then 0.5% paraformaldehyde/0.5% glutaraldehyde fixative PBS buffer (plus glucose 1.6%, CaCl2 0.002% and DMSO 1%) (50 ml/5 min. for each). Tissues were rapidly removed and harvested for paraffin sectioning (Paraplast plus-Sherwood medical, OSI, France) or for resin sectioning (histo-resin Leica, France). All sections were cut at 5 microns (Reichert Jung for paraffin and RM2155 Leica for resin sections) and mounted on Superfrost/Plus glass slides (non gelatin-coated). Paraffin was removed with xylene, and sections were carried through a descending, then an ascending ethanol series (from 100 to 50%, V/V and reverse). Dried sections were then processed for light microscope autoradiography by attaching nuclear emulsion-coated (Kodak, NTB2, diluted 1:1 with distilled water) coverslips to them. After air drying for 2 hrs at room temperature the autoradiographs were exposed for 6 to 10 weeks in light-tight boxes at 4° C. Radiosensitive coverslips were developed in Kodak D19 (3 min.) developer and fixed in Kodak fixer (3 min.) Sections were counterstained with Harris' hematoxylin (Prolabo, France) and Toluidine blue (Sigma, France), dehydrated and mounted in Eukitt medium. The tissue and overlying silver grains were viewed and photographed with a Leica photomicroscope equipped with bright-field optics (DMRD Leitz, Leica).
The tritium activity was determined as counts/mm^2.
In the case of radioactive quantification of organ sections or acid extracts, using a liquid scintillation counter (MR300Kontron), the tritium activity was determined as cpm/mg protein. Protein concentration was determined by the Bradford method (Bradford et al., 1976).

For data set [5], the system named is ^3H-pentapeptide binding sites. Put plainly: Cellular localization of ^3H-pentapeptide binding sites by light microscopic autoradiography. It counts as in vivo, rat. The procedure:
as §1

The conditions of data set [6]: rat, in vivo. The source holds these as a separate data set.
Method: Labeled compound i.e. 6.66 MBq, 3 nmoles or 2 mg for whole body autoradiography (WBA) and 370-555 KBq, 170-250 pmoles or 110-160 ng for the pharmacokinetic and cellular-site distribution studies was diluted in 100-200 ml of phosphate-buffered saline (PBS Dulbecco's, Bio Media, France) and administered intravenously into the jugular vein of anesthetized rats (halothan for WBA or pentobarbital for all the other experiments).
The target tissues for the final secretory maturation product of SMR1, the pentapeptide, was examined, in vivo, by the whole body autoradiography procedure according to the method of Ullberg (Ullberg et al., 1981).
The five week-old rats were sacrificed under halothane, at 90 sec., 3, 60 and 240 min. after i.v. injection of 3 nmoles (6.66 MBq or 2 μg) of tritiated pentapeptide. At the selected time, the restrained animal was immediately immersed in a −80° C. mixture of dry ice and isopentane, to prevent artifactual tracer redistribution. After 48 hours in self-sealing plastic stored at −30° C., the animal was then blocked in mounting medium. Whole body sagittal sections (20 mm) of the frozen rat were made at −30° C. with a cryostat (whole body slicing microtome Leitz 400 with a chest mobile freezer Leitz O M, Leica, France). Sections adhering to Scotch tape were left in a freezer, temperature −30° C., for 4 days to insure complete drying. The tapes were placed in a film cassette with ^3H Hyperfilm (Amersham, France) at −20° C. After two weeks the films were developed in Kodak D19 developer and fixed in Kodak fixer.
Data from whole body sections or individual organ sections placed in the gas-chamber detector were collected for 8 hr. or 50 hr., respectively. The number of counts per pixel was recorded in the β imager 2200 (Biospace, France) with a surface detector of 20×20 cm^2, followed by computer-assisted image analysis with the β Vision program using a HP Vectra computer. The tritium activity was determined as counts/mm^2. The linearity of this method of detection allowed measurement of the non specific binding of ^3H-pentapeptide, measured in various structures or compartments within the section with apparent non binding sites for the peptide (background tissues, e.g. muscle and cardiac blood except brain and spinal cord) or in the same labeled structure, in displacement experiments.
The target of data set [7] is anti-pentapeptide serum (rabbit antiserum raised against QHNPR conjugated to egg albumin). The experiment in a line: competitive liquid phase RIA, displacement of 125I-labelled pentapeptide from the antiserum. Background: In a radioligand displacement assay an active substance lowers the binding of a labelled ligand.
[8] abbreviates: single i.v. injection of 110 ng.

Square brackets hold non-standard residues; d marks the D form. Ends that are not written are not given here. pGlu = O=C1CC[C@@H](C(=O)O)N1

RQHNPR [hexapeptide]: in data set [1], the preferred target organs result was “kidney and pancreas”; the “retention by the glandular mucosa of stomach” value is “very efficiently retained”; the “target organs compared with the pentapeptide” value is “almost the same as the target organs of the pentapeptide”.
As for “QHNPR [pentapeptide, (Gln1)-His-Asn-Pro-Arg]”, in data set [2] (DTPA), the “radioactive extract representing metabolites” value worked out at 8±6%. In data set [2] (DTPA 16 mM added), the “radioactive peptide fraction extracted by methanol” value is recorded as 53±9%. Besides, the “amount eliminated through glomerular filtration” value in data set [3] (over a 60 min period, anesthetized rats, 170 pmoles dose) was determined as 6 pmol. Also, in data set [3] (plasma), the “pentapeptide-binding substance complex as share of the circulating peptide fraction” value was “approximately 45%”. Further, in data set [3] (rat, in vivo), the “urine radioactivity that is pentapeptide metabolites” value is listed as “Approximately 80%”. In data set [3] (setting [8]), the “time from which plasma concentration is back close to a basal level” value is given as no less than 30 min. Moreover, in data set [3] (setting [8]), the “time to maximal plasma level” value is recorded as no more than 2 min. Moreover, the “infused pentapeptide metabolized in the bloodstream” value in data set [3] (within 4 min) came to 35%. Besides, the specific labeling percentage in data set [4] (glandular mucosa of the stomach) is recorded as 38-61%; in data set [4] (long bone) it was 29-38%; in data set [4] (pancreatic lobules), 37-55%; in data set [4] (submandibular lobules) it was 51-91%. The “displacement of uptake by excess cold ligand” value in data set [4] (renal outer medullary) is “almost complete displacement”. Further, the “cellular localization of silver grains” value in data set [5] (bone tissue) is reported as “the trabeculae bone spaces”; in data set [5] (dental tissue, upper incisor root) it was “over the entire dentin layer”; in data set [5] (glandular gastric mucosa) it was “over the chief or peptic cells”; in data set [5] (kidney, 60 min, physiological concentration), “over the epithelial cells of the S3 segment of the straight portion of the proximal tubules”; in data set [5] (pancreatic tissue), “over the cells of acini”. For the same molecule, the cellular label entry in data set [5] (glomeruli, epithelia of distal and collecting tubules) is “No specific cellular label”; in data set [5] (pancreatic ducts and islets of Langerhans), “No label was observed”; in data set [5] (submandibular tissue) it was “no selective cell association of label was identifiable”. Besides, the “radioactivity in the intestinal content” value in data set [6] was “No radioactivity was found”. The “time by which binding to tissue sites has occurred” value in data set [6] was no more than 90 s. Besides, the “time over which binding is stable” value in data set [6] came out at 240 min. For the same molecule, in data set [6], the “tissue to blood ratio” value is reported as roughly 2.
With VRGPRRQHNPR [undecapeptide], in data set [1], the preferred target organs entry was “kidney and pancreas”; the “target organs compared with the pentapeptide” value was “almost the same as the target organs of the pentapeptide”.
For the molecule QHNPR [(Gln1)-His-Asn-Pro-Arg, SMR1-derived pentapeptide QHNPR (unlabelled)], in data set [7], the amount of standard for 50% displacement is less than 570 fmol and the detection limit (80% binding) was determined as 106 fmol.
For [pGlu]HNPR [(Glp1)-His-Asn-Pro-Arg] the same measures were less than 570 fmol and 106 fmol.
As for QHNP [tetrapeptide sequence (QHNP)], the cross-reactivity in data set [7] is less than 0.01%.

(Values after patent US7429448B2, “Therapeutic use of the SMR1 protein and active derivatives thereof” (Institut Pasteur, priority 1998, dated 2008).)
